Reference: ChEMBL document CHEMBL4190168 (Medchemcomm, 2016)

system: EA.hy 926; assay: Antiproliferative activity against human EAhy926 cells after 48 hrs by MTT assay; type: functional, cell-based; settings: EA.hy 926, 48 h

SMILES | IC50 [µM]
CC(C)c1nc(C=O)cc2c1[nH]c1ccccc12 | > 100
O=Cc1cc2c3ccccc3n(Cc3ccccc3)c2c(-c2ccc(Cl)cc2)n1 | > 100
COc1cc(-c2nc(CNCCCCCCNCc3cc4c5ccccc5n(CCCc5ccccc5)c4c(-c4cc(OC)c(OC)c(OC)c4)n3)cc3c4ccccc4n(CCCc4ccccc4)c23)cc(OC)c1OC | 1.69
COc1ccc(-c2nc(C=O)cc3c2[nH]c2ccccc23)cc1 | > 100
CCCCn1c2ccccc2c2cc(C=O)nc(C(C)C)c21 | > 100
COc1ccc(-c2nc(C=O)cc3c4ccccc4n(C)c23)cc1 | > 100
CC(C)c1nc(CNCCCNCc2cc3c4ccccc4n(Cc4ccccc4)c3c(C(C)C)n2)cc2c3ccccc3n(Cc3ccccc3)c12 | 13.5
Cc1nc(CNCCCNCc2cc3c4ccccc4n(Cc4ccccc4)c3c(C)n2)cc2c3ccccc3n(Cc3ccccc3)c12 | 15.3
COc1ccc(-c2nc(C=O)cc3c4ccccc4n(-c4ccccc4)c23)cc1 | > 100
Cc1nc(C=O)cc2c3ccccc3n(C)c12 | > 100
O=Cc1cc2c3ccccc3n(Cc3ccccc3)c2c(-c2ccccc2)n1 | > 100
CCCCn1c2ccccc2c2cc(CNCCCCNCc3cc4c5ccccc5n(CCCC)c4c(C(C)C)n3)nc(C(C)C)c21 | 2.38
Cc1nc(CNCCCNCc2cc3c4ccccc4n(CC(C)C)c3c(C)n2)cc2c3ccccc3n(CC(C)C)c12 | 11.8
CCCCn1c2ccccc2c2cc(C=O)nc(C)c21 | > 100
COc1ccc(-c2nc(CNCCCCNCc3cc4c([nH]c5ccccc54)c(-c4ccc(OC)cc4)n3)cc3c2[nH]c2ccccc23)cc1 | 10.3
Cn1c2ccccc2c2cc(C=O)nc(-c3ccccc3)c21 | > 100
CCCCn1c2ccccc2c2cc(CNCCCCNCc3cc4c5ccccc5n(CCCC)c4c(C)n3)nc(C)c21 | 1.69
CCCCn1c2ccccc2c2cc(CNCCCCNCc3cc4c5ccccc5n(CCCC)c4c(-c4ccc(Cl)cc4)n3)nc(-c3ccc(Cl)cc3)c21 | 4.85
Cc1nc(CNCCCNCc2cc3c4ccccc4n(Cc4cccc(Cl)c4)c3c(C)n2)cc2c3ccccc3n(Cc3cccc(Cl)c3)c12 | 11.1
CC(C)c1nc(CNCCCCCCNCc2cc3c4ccccc4n(Cc4ccccc4)c3c(C(C)C)n2)cc2c3ccccc3n(Cc3ccccc3)c12 | 2.03
c1ccc(Cn2c3ccccc3c3cc(CNCCCNCc4cc5c6ccccc6n(Cc6ccccc6)c5c(-c5ccccc5)n4)nc(-c4ccccc4)c32)cc1 | > 20
Cc1nc(C=O)cc2c3ccccc3n(Cc3ccccc3)c12 | > 100
Cc1nc(CNCCCCCCNCc2cc3c4ccccc4n(C)c3c(C)n2)cc2c3ccccc3n(C)c12 | 1.85
Cc1nc(CNCCCCNCc2cc3c4ccccc4n(Cc4ccccc4)c3c(C)n2)cc2c3ccccc3n(Cc3ccccc3)c12 | 3.18
COc1ccc(-c2nc(CNCCCCCCNCc3cc4c5ccccc5n(Cc5ccccc5)c4c(-c4ccc(OC)cc4)n3)cc3c4ccccc4n(Cc4ccccc4)c23)cc1 | 4.4
Cc1nc(C=O)cc2c3ccccc3n(Cc3cccc(Cl)c3)c12 | > 100

SMILES | IC50 [µM]
COc1ccc(-c2nc(CNCCCCCNCc3cc4c5ccccc5n(Cc5ccccc5)c4c(-c4ccc(OC)cc4)n3)cc3c4ccccc4n(Cc4ccccc4)c23)cc1 | 3.88
Cn1c2ccccc2c2cc(CNCCCCNCc3cc4c5ccccc5n(C)c4c(-c4ccccc4)n3)nc(-c3ccccc3)c21 | 2.47
Clc1ccc(-c2nc(CNCCCCCNCc3cc4c5ccccc5n(Cc5ccccc5)c4c(-c4ccc(Cl)cc4)n3)cc3c4ccccc4n(Cc4ccccc4)c23)cc1 | 4.32
CCCCCCn1c2ccccc2c2cc(CNCCCCCCNCc3cc4c5ccccc5n(CCCCCC)c4c(-c4ccc(OC)cc4)n3)nc(-c3ccc(OC)cc3)c21 | 4.25
Cc1nc(C=O)cc2c3ccccc3n(CCCc3ccccc3)c12 | > 100
CCCCn1c2ccccc2c2cc(CNCCCCCNCc3cc4c5ccccc5n(CCCC)c4c(C(C)C)n3)nc(C(C)C)c21 | 1.4
Cc1nc(CNCCCCNCc2cc3c4ccccc4n(C(C)C)c3c(C)n2)cc2c3ccccc3n(C(C)C)c12 | 1.28
Cc1nc(C=O)cc2c3ccccc3n(CC(C)C)c12 | > 100
c1ccc(Cn2c3ccccc3c3cc(CNCCCCCCNCc4cc5c6ccccc6n(Cc6ccccc6)c5c(-c5ccccc5)n4)nc(-c4ccccc4)c32)cc1 | 8.09
COc1ccc(-c2nc(CNCCCCCNCc3cc4c5ccccc5n(C)c4c(-c4ccc(OC)cc4)n3)cc3c4ccccc4n(C)c23)cc1 | 1.1
Cn1c2ccccc2c2cc(CNCCCCCCNCc3cc4c5ccccc5n(C)c4c(-c4ccccc4)n3)nc(-c3ccccc3)c21 | 1.61
CC(C)c1nc(C=O)cc2c3ccccc3n(Cc3ccccc3)c12 | > 100
COc1ccc(-c2nc(CNCCCCNCc3cc4c5ccccc5n(C)c4c(-c4ccc(OC)cc4)n3)cc3c4ccccc4n(C)c23)cc1 | 2.94
Cc1nc(C=O)cc2c3ccccc3n(C(C)C)c12 | > 100
COc1cc(-c2nc(C=O)cc3c4ccccc4n(CCCc4ccccc4)c23)cc(OC)c1OC | > 100
COc1ccc(/C=C\c2cc(OC)c(OC)c(OC)c2)cc1OP(=O)(O)O [FOSBRETABULIN] | 6.4
CCCCn1c2ccccc2c2cc(CNCCCNCc3cc4c5ccccc5n(CCCC)c4c(-c4ccc(Cl)cc4)n3)nc(-c3ccc(Cl)cc3)c21 | > 20
CCn1c2ccccc2c2cc(C=O)nc(-c3cc(OC)c(OC)c(OC)c3)c21 | > 100
CCCCCCn1c2ccccc2c2cc(C=O)nc(-c3ccc(OC)cc3)c21 | > 100
CCCCn1c2ccccc2c2cc(C=O)nc(-c3ccc(Cl)cc3)c21 | > 100
Clc1ccc(-c2nc(CNCCCCCCNCc3cc4c5ccccc5n(Cc5ccccc5)c4c(-c4ccc(Cl)cc4)n3)cc3c4ccccc4n(Cc4ccccc4)c23)cc1 | 3.63
Cc1nc(CNCCCCNCc2cc3c4ccccc4n(CC(C)C)c3c(C)n2)cc2c3ccccc3n(CC(C)C)c12 | 2.56
Cc1nc(CNCCCCNCc2cc3c4ccccc4n(C)c3c(C)n2)cc2c3ccccc3n(C)c12 | 2.76
CCn1c2ccccc2c2cc(CNCCCNCc3cc4c5ccccc5n(CC)c4c(-c4cc(OC)c(OC)c(OC)c4)n3)nc(-c3cc(OC)c(OC)c(OC)c3)c21 | 13.4
CC(C)c1nc(CNCCCCCNCc2cc3c([nH]c4ccccc43)c(C(C)C)n2)cc2c1[nH]c1ccccc12 | > 20
Cc1nc(CNCCCNCc2cc3c4ccccc4n(CCCc4ccccc4)c3c(C)n2)cc2c3ccccc3n(CCCc3ccccc3)c12 | 9.87

system: not listed separately; assay: Solubility of the compound in water; type: physicochemical; settings: not given

SMILES | solubility [µg/mL]
Cl.c1ccc(Cn2c3ccccc3c3cc(CNCCCCCCNCc4cc5c6ccccc6n(Cc6ccccc6)c5c(-c5ccccc5)n4)nc(-c4ccccc4)c32)cc1 | > 10000
CCCCn1c2ccccc2c2cc(CNCCCCNCc3cc4c5ccccc5n(CCCC)c4c(C(C)C)n3)nc(C(C)C)c21.Cl | > 10000
Cc1nc(CNCCCCNCc2cc3c4ccccc4n(C(C)C)c3c(C)n2)cc2c3ccccc3n(C(C)C)c12.Cl | > 10000
Cc1nc(CNCCCNCc2cc3c4ccccc4n(CCCc4ccccc4)c3c(C)n2)cc2c3ccccc3n(CCCc3ccccc3)c12.Cl | > 10000
CCCCn1c2ccccc2c2cc(CNCCCNCc3cc4c5ccccc5n(CCCC)c4c(-c4ccc(Cl)cc4)n3)nc(-c3ccc(Cl)cc3)c21.Cl | > 10000
CC(C)c1nc(CNCCCCCNCc2cc3c([nH]c4ccccc43)c(C(C)C)n2)cc2c1[nH]c1ccccc12.Cl | > 10000
Cc1nc(CNCCCCNCc2cc3c4ccccc4n(Cc4ccccc4)c3c(C)n2)cc2c3ccccc3n(Cc3ccccc3)c12.Cl | > 10000
Cc1nc(CNCCCNCc2cc3c4ccccc4n(Cc4cccc(Cl)c4)c3c(C)n2)cc2c3ccccc3n(Cc3cccc(Cl)c3)c12.Cl | > 10000
COc1ccc(-c2nc(CNCCCCNCc3cc4c5ccccc5n(C)c4c(-c4ccc(OC)cc4)n3)cc3c4ccccc4n(C)c23)cc1.Cl | > 10000
Cc1nc(CNCCCCCCNCc2cc3c4ccccc4n(C)c3c(C)n2)cc2c3ccccc3n(C)c12.Cl | > 10000
Cc1nc(CNCCCNCc2cc3c4ccccc4n(Cc4ccccc4)c3c(C)n2)cc2c3ccccc3n(Cc3ccccc3)c12.Cl | > 10000
CCCCn1c2ccccc2c2cc(CNCCCCNCc3cc4c5ccccc5n(CCCC)c4c(C)n3)nc(C)c21.Cl | > 10000
CCn1c2ccccc2c2cc(CNCCCNCc3cc4c5ccccc5n(CC)c4c(-c4cc(OC)c(OC)c(OC)c4)n3)nc(-c3cc(OC)c(OC)c(OC)c3)c21.Cl | > 10000
Cl.Clc1ccc(-c2nc(CNCCCCCNCc3cc4c5ccccc5n(Cc5ccccc5)c4c(-c4ccc(Cl)cc4)n3)cc3c4ccccc4n(Cc4ccccc4)c23)cc1 | > 10000
CC(C)c1nc(CNCCCNCc2cc3c4ccccc4n(Cc4ccccc4)c3c(C(C)C)n2)cc2c3ccccc3n(Cc3ccccc3)c12.Cl | > 10000
CCCCn1c2ccccc2c2cc(CNCCCCNCc3cc4c5ccccc5n(CCCC)c4c(-c4ccc(Cl)cc4)n3)nc(-c3ccc(Cl)cc3)c21.Cl | > 10000
Cl.c1ccc(Cn2c3ccccc3c3cc(CNCCCNCc4cc5c6ccccc6n(Cc6ccccc6)c5c(-c5ccccc5)n4)nc(-c4ccccc4)c32)cc1 | > 10000
CC(C)c1nc(CNCCCCCCNCc2cc3c4ccccc4n(Cc4ccccc4)c3c(C(C)C)n2)cc2c3ccccc3n(Cc3ccccc3)c12.Cl | > 10000
CCCCCCn1c2ccccc2c2cc(CNCCCCCCNCc3cc4c5ccccc5n(CCCCCC)c4c(-c4ccc(OC)cc4)n3)nc(-c3ccc(OC)cc3)c21.Cl | > 10000
Cc1nc(CNCCCCNCc2cc3c4ccccc4n(CC(C)C)c3c(C)n2)cc2c3ccccc3n(CC(C)C)c12.Cl | > 10000
Cc1nc(CNCCCNCc2cc3c4ccccc4n(CC(C)C)c3c(C)n2)cc2c3ccccc3n(CC(C)C)c12.Cl | > 10000
COc1cc(-c2nc(CNCCCCCCNCc3cc4c5ccccc5n(CCCc5ccccc5)c4c(-c4cc(OC)c(OC)c(OC)c4)n3)cc3c4ccccc4n(CCCc4ccccc4)c23)cc(OC)c1OC.Cl | > 10000
Cl.Cn1c2ccccc2c2cc(CNCCCCNCc3cc4c5ccccc5n(C)c4c(-c4ccccc4)n3)nc(-c3ccccc3)c21 | > 10000
COc1ccc(-c2nc(CNCCCCCNCc3cc4c5ccccc5n(Cc5ccccc5)c4c(-c4ccc(OC)cc4)n3)cc3c4ccccc4n(Cc4ccccc4)c23)cc1.Cl | > 10000
CCCCn1c2ccccc2c2cc(CNCCCCCNCc3cc4c5ccccc5n(CCCC)c4c(C(C)C)n3)nc(C(C)C)c21.Cl | > 10000
